Experimental data published in US20220119354A1, “DIAMINO-SUBSTITUTED PYRIDINES AND PYRIMIDINES AS HERBICIDES” (FMC Corporation, priority 2019, published 2022).

Legend:
Format in all cases: in vivo
[1] = system: ryegrass, Italian (Lolium multiflorum); assay: Test A preemergence, Italian ryegrass; conditions: 0 to 100 scale, 0 is no effect, 100 is complete control
Procedure, shortened: (§1)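 Seeds sown in loam–sand blend received a directed soil spray of test chemical in non-phytotoxic solvent with surfactant (preemergence); postemergence plants at 2–10 cm, one- to two-leaf stage, were sprayed with the same formulation. Injury rated visually versus untreated controls after ~10 d in greenhouse, 0–100 scale.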

[2] = system: blackgrass (Alopecurus myosuroides); assay: Test A postemergence, blackgrass; conditions: Alopecurus myosuroides, post-emergence, 240 h, 0 to 100 scale, 0 no effect, 100 complete control, read-out: Plant response rating, Blackgrass; for pest or weed control at 125 g/ha: 125 g ai/ha; for pest or weed control at 500 g/ha: 500 g ai/ha
Procedure, shortened: as §1

[3] = system: barnyardgrass (Echinochloa crus-galli); assay: Test A preemergence, barnyardgrass; conditions: 0 to 100 scale, 0 is no effect, 100 is complete control
Procedure, shortened: as §1

[4] = system: ryegrass, Italian (Lolium multiflorum); assay: Test A postemergence, Italian ryegrass; conditions: Lolium multiflorum, post-emergence, 240 h, 0 to 100 scale, 0 no effect, 100 complete control, read-out: Plant response rating, Ryegrass, Italian; for pest or weed control at 125 g/ha: 125 g ai/ha; for pest or weed control at 500 g/ha: 500 g ai/ha
Procedure, shortened: as §1

[5] = system: pigweed (Amaranthus retroflexus); assay: Test A postemergence, pigweed; conditions: Amaranthus retroflexus, post-emergence, 240 h, 0 to 100 scale, 0 no effect, 100 complete control, read-out: Plant response rating, Pigweed; for pest or weed control at 125 g/ha: 125 g ai/ha; for pest or weed control at 500 g/ha: 500 g ai/ha
Procedure, shortened: as §1

kochia (Kochia scoparia) [6] = assay: Test A postemergence, kochia; conditions: Bassia scoparia, post-emergence, 240 h, 0 to 100 scale, 0 no effect, 100 complete control, read-out: Plant response rating, Kochia; for pest or weed control at 125 g/ha: 125 g ai/ha; for pest or weed control at 500 g/ha: 500 g ai/ha
Procedure, shortened: as §1

[7] = system: ragweed (common ragweed, Ambrosia elatior); assay: Test A preemergence, ragweed; conditions: 0 to 100 scale, 0 is no effect, 100 is complete control
Procedure, shortened: as §1

rice (Oryza sativa) = assay: Test B flooded paddy test, rice; conditions: Oryza sativa, 360 h; Flood, 250 g ai/ha, applied to paddy water, 2-leaf stage, visual evaluation after 13 to 15 d; read-out: Plant response rating, Rice (0 to 100 scale, 0 is no effect, 100 is complete control)
Procedure, shortened: (§2)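 Plants grown to 2-leaf stage. Compounds applied directly into paddy water flooded 3 cm above soil, with that depth kept throughout. After 13–15 d in greenhouse, visual rating versus controls on a 0–100 scale (0 no effect, 100 complete control).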

corn (Zea mays) = assay: Test A postemergence, corn; conditions: Zea mays, post-emergence, 240 h, 0 to 100 scale, 0 no effect, 100 complete control; for Corn plant response rating (crop injury, 0 = no effect, 100 = complete kill) at 125 g/ha: 125 g ai/ha; for Corn plant response rating (crop injury, 0 = no effect, 100 = complete kill) at 500 g/ha: 500 g ai/ha
Procedure, shortened: as §1

[8] = system: ragweed (common ragweed, Ambrosia elatior); assay: Test A postemergence, ragweed; conditions: Ambrosia artemisiifolia, post-emergence, 240 h, 0 to 100 scale, 0 no effect, 100 complete control, read-out: Plant response rating, Ragweed; for pest or weed control at 125 g/ha: 125 g ai/ha; for pest or weed control at 500 g/ha: 500 g ai/ha
Procedure, shortened: as §1

[9] = system: galium (catchweed bedstraw, Galium aparine); assay: Test A postemergence, galium; conditions: Galium, post-emergence, 240 h, 0 to 100 scale, 0 no effect, 100 complete control, read-out: Plant response rating, Galium; for pest or weed control at 125 g/ha: 125 g ai/ha; for pest or weed control at 500 g/ha: 500 g ai/ha
Procedure, shortened: as §1

[10] = system: foxtail, giant (Setaria faberii); assay: Test A postemergence, giant foxtail; conditions: Setaria faberi, post-emergence, 240 h, 0 to 100 scale, 0 no effect, 100 complete control, read-out: Plant response rating, Foxtail, Giant; for pest or weed control at 125 g/ha: 125 g ai/ha; for pest or weed control at 500 g/ha: 500 g ai/ha
Procedure, shortened: as §1

[11] = system: ducksalad (Heteranthera limosa); assay: Test B flooded paddy test, ducksalad; conditions: Heteranthera limosa, 360 h; Flood, 250 g ai/ha, applied to paddy water, 2-leaf stage, visual evaluation after 13 to 15 d; read-out: Plant response rating, Ducksalad (0 to 100 scale, 0 is no effect, 100 is complete control)
Procedure, shortened: as §2

[12] = system: barnyardgrass (Echinochloa crus-galli); assay: Test B flooded paddy test, barnyardgrass; conditions: Echinochloa crus-galli, 360 h; Flood, 250 g ai/ha, applied to paddy water, 2-leaf stage, visual evaluation after 13 to 15 d; read-out: Plant response rating, Barnyardgrass (0 to 100 scale, 0 is no effect, 100 is complete control)
Procedure, shortened: as §2

kochia (Kochia scoparia) [13] = assay: Test A preemergence, kochia; conditions: 0 to 100 scale, 0 is no effect, 100 is complete control
Procedure, shortened: as §1

[14] = system: foxtail, giant (Setaria faberii); assay: Test A preemergence, giant foxtail; conditions: 0 to 100 scale, 0 is no effect, 100 is complete control
Procedure, shortened: as §1

[15] = system: sedge, umbrella (small-flower umbrella sedge, Cyperus difformis); assay: Test B flooded paddy test, umbrella sedge; conditions: Cyperus difformis, 360 h; Flood, 250 g ai/ha, applied to paddy water, 2-leaf stage, visual evaluation after 13 to 15 d; read-out: Plant response rating, Sedge, Umbrella (0 to 100 scale, 0 is no effect, 100 is complete control)
Procedure, shortened: as §2

SMILES	Ryegrass, Italian plant response rating ([1]; 125 g ai/ha)	Ryegrass, Italian plant response rating ([1]; 500 g ai/ha)	pest or weed control at 125 g/ha [2]	pest or weed control at 500 g/ha [2]	Barnyardgrass plant response rating ([3]; 125 g ai/ha)	Barnyardgrass plant response rating ([3]; 500 g ai/ha)	pest or weed control at 125 g/ha [4]	pest or weed control at 500 g/ha [4]	pest or weed control at 125 g/ha [5]	pest or weed control at 500 g/ha [5]	pest or weed control at 125 g/ha (kochia (Kochia scoparia) [6])	pest or weed control at 500 g/ha (kochia (Kochia scoparia) [6])	Ragweed plant response rating ([7]; 125 g ai/ha)	Ragweed plant response rating ([7]; 500 g ai/ha)	plant injury at 250 g/ha (rice (Oryza sativa))	Corn plant response rating (crop injury, 0 = no effect, 100 = complete kill) at 125 g/ha (corn (Zea mays))	Corn plant response rating (crop injury, 0 = no effect, 100 = complete kill) at 500 g/ha (corn (Zea mays))	pest or weed control at 125 g/ha [8]	pest or weed control at 500 g/ha [8]	pest or weed control at 125 g/ha [9]	other results
C[C@@H](Nc1ncc(C(F)(F)F)c(N)n1)c1cc2c(F)cccc2s1 [Compound 61, N2-[(1R)-1-(4-fluorobenzo[b]thien-2-yl)ethyl]-5-(trifluoromethyl)-2,4-pyrimidinediamine]	40	100	80%	70%	80	90	50%	90%	100%	100%	80%	90%	90	100	0%	10%	60%	60%	100%	70%	pest or weed control at 500 g/ha [9]: 100%; pest or weed control at 125 g/ha [10]: 90%; pest or weed control at 500 g/ha [10]: 90%; pest or weed control at 250 g/ha [11]: 50%; pest or weed control at 250 g/ha [12]: 40%; Kochia plant response rating (kochia (Kochia scoparia) [13]; 125 g ai/ha): 90; Kochia plant response rating (kochia (Kochia scoparia) [13]; 500 g ai/ha): 90; Foxtail, Giant plant response rating ([14]; 125 g ai/ha): 100; Foxtail, Giant plant response rating ([14]; 500 g ai/ha): 100; pest or weed control at 250 g/ha [15]: 90%
C[C@@H](Nc1ncc(C(F)(F)F)c(N)n1)c1cc2cccc(F)c2o1 [Compound 71, N2-[(1R)-1-(7-fluoro-2-benzofuranyl)ethyl]-5-(trifluoromethyl)-2,4-pyrimidinediamine]	20	80	0%	50%	70	100	30%	70%	100%	100%	90%	90%	100	100	0%	0%	40%	80%	90%	80%	pest or weed control at 500 g/ha [9]: 90%; pest or weed control at 125 g/ha [10]: 60%; pest or weed control at 500 g/ha [10]: 90%; pest or weed control at 250 g/ha [11]: 0%; pest or weed control at 250 g/ha [12]: 0%; Kochia plant response rating (kochia (Kochia scoparia) [13]; 125 g ai/ha): 90; Kochia plant response rating (kochia (Kochia scoparia) [13]; 500 g ai/ha): 100; Foxtail, Giant plant response rating ([14]; 125 g ai/ha): 90; Foxtail, Giant plant response rating ([14]; 500 g ai/ha): 100; pest or weed control at 250 g/ha [15]: 0%
